Key:
[1] = test system: PC12 cells expressing Htt-Q103; assay: PC12 Htt-Q103 toxicity assay, Alamar Blue viability; type: cell-based, rat; parameters: rescue of Htt-Q103 toxicity: dose or concentration left out as unconfirmed
From the text: In the first cell system, Applicants developed, in collaboration with Dr. Erik Schweitzer (UCLA), a high-throughput screen (HTS) for compounds that rescue polyQ-induced apoptosis in immortalized rat neuronal cells (Suhr S T, et al., Proc Natl Acad Sci U S A 1998, 95: 7999-8004). PC12 rat pheochromocytoma cells were transfected with exon-1 of the human huntingtin gene containing either 25 or 103 N-terminal polyQ repeats. For enhanced stability the repeat portion consists of alternating CAG/CAA repeats (FIG. 11A). In addition, the expression construct incorporates enhanced green fluorescent protein (EGFP) as a reporter that enables tracking of the fusion proteins by direct immunofluorescence microscopy or biochemical (immunoprecipitation or Western blotting) detection with anti-EGFP antibodies (Schweitzer E S, et al., submitted). Finally, expression is regulated using the Bombyx mori ecdysone receptor and ecdysone analog, tebufenozide (Suhr S T, et al., Proc Natl Acad Sci U S A 1998, 95: 7999-8004). […]
The high-throughput screen developed by Applicants using the PC12 cell system uses the fluorescent viability dye Alamar Blue™ (FIG. 11B). […] The Z-factor is a commonly used quantitative index for maximal signal separation and minimal variability. […]

[2] = test system: BJ primary cells; assay: Sensitization of primary cells by co-treatment, calcein AM viability staining; type: cell-based, human; conditions: for effect on calcein AM viability staining, alone: BJ primary cells
From the text: (A-C) Western blot of lysates from BJ, BJ-TERT, BJ-TERT/LT/ST, BJ-TERT/LT/ST/RAS^V12, BJ-TERT/LT/RAS^V12 and BJ-TERT/LT/RAS^V12/ST cells with an antibody directed against topoisomerase II (A) or TOPI (B, C). In panel (C), cells were transfected with an siRNA directed against TOPI, lamic A/C or with a control double strand DNA duplex of the same length (TOPI dsDNA). In each case, the blot was probed with an antibody against eIF-4E to identify differences in the amount of protein loaded. The relative amount is quantitated below each band. […] Cell number was determined after transfection with an siRNA directed against TOPI and treatment with the indicated concentrations of camptothecin. (E) Okadaic acid, an inhibitor of PP2A and other cellular phosphatases, sensitizes primary human cells to camptothecin. BJ primary cells were treated simultaneously with the indicated concentrations of both camptothecin and okadaic acid and the effect on calcein AM viability staining was determined. […] BJ primary cells were treated with the indicated concentrations of okadaic acid and the expression level of TOPI was determined by western blot. The relative amount is quantitated below each band.
The compounds in group (iii) are camptothecin (CPT) and a novel compound from a combinatorial library, which Applicants have named erastin, for eradicator of RAS and ST-expressing cells (FIG. 2). Efficient CPT-induced and erastin-induced cell death requires the presence of both ST and RAS^V12 (FIGS. 3 and 4 and Table 1). Although CPT and erastin have a similar genetic basis of selectivity, they have distinct mechanisms of action. […] The phosphatase inhibitor okadaic acid was capable of sensitizing otherwise resistant BJ primary cells to CPT (FIG. 5E), possibly because okadaic acid upregulates TOPI (FIG. 5F).

[3] = test system: topoisomerase I (TOPI); assay: Western blot for TOPI expression; type: cell-based, human; conditions: BJ primary cells
From the text: (A-C) Western blot of lysates from BJ, BJ-TERT, BJ-TERT/LT/ST, BJ-TERT/LT/ST/RAS^V12, BJ-TERT/LT/RAS^V12 and BJ-TERT/LT/RAS^V12/ST cells with an antibody directed against topoisomerase II (A) or TOPI (B, C). In panel (C), cells were transfected with an siRNA directed against TOPI, lamic A/C or with a control double strand DNA duplex of the same length (TOPI dsDNA). In each case, the blot was probed with an antibody against eIF-4E to identify differences in the amount of protein loaded. The relative amount is quantitated below each band. […] Cell number was determined after transfection with an siRNA directed against TOPI and treatment with the indicated concentrations of camptothecin. (E) Okadaic acid, an inhibitor of PP2A and other cellular phosphatases, sensitizes primary human cells to camptothecin. BJ primary cells were treated simultaneously with the indicated concentrations of both camptothecin and okadaic acid and the effect on calcein AM viability staining was determined. […] BJ primary cells were treated with the indicated concentrations of okadaic acid and the expression level of TOPI was determined by western blot. The relative amount is quantitated below each band. […]

[4] = test system: BJELR cells (BJ-TERT/LT/ST/RAS^V12); assay: Screen of ACL library for suppressors of erastin activity (calcein AM); type: cell-based, human; conditions: 4 μg/ml compound, 5 μg/ml erastin
Protocol: ACL library comprises 1,540 compounds and all compounds were prepared in DMSO at […] in 384-well polypropylene plates and stored at −20° C. Replica daughter plates for each library plate were prepared using Zymark Scilone ALH. The daughter plates were diluted 50 fold in DMEM and compound concentration in the daughter plate is 80 μg/ml with 2% DMSO. In assay plate compound from the daughter plate is diluted 20 fold with cell suspension, thus final concentration of each compound is 4 μg/ml.
BJELR cells were seeded at 6000 cells/well (57μl) (for co-treatment screen) and 5000 cells/well (57 μl) (for pretreatment screen) in 384-well black, clear bottom plates using syringe bulk dispenser. For co-treatment suppressor screen, cells were treated with 3 μl of compound from the daughter plates of ACL library (final concentration in assay plate at 4 μg/ml) and at the same time treated with 5 μg/ml of erastin. Compound transfer was done using 384 fixed cannula head. Plates were incubated for 48 hours at 37° C. in incubator with 5% CO2. For the pretreatment screens, cells were pre-incubated with the compound from ACL daughter library plate for overnight and then treated with 5 μg/ml of erastin for further 48 hours. […] Fluorescence intensity was determined using Fusion platereader with filters centered in an excitation of 485 nm and emission of 535 nm. […]

[5] = test system: BJELR cells (BJ-TERT/LT/ST/RAS^V12) versus BJEH cells (BJ-TERT); assay: Erastin analogs: activity and selectivity in tumor cells versus normal cells; type: cell-based, human
From the text: Applicants additionally tested 135 analogs of erastin for activity and selectivity in tumor cells versus normal cells. […] This compound was named erastin B (see FIG. 8). […] BJELR cells are BJ-TERT/LT/ST/RAS^V12 cells, and BJEH are BJ-TERT cells.

COC(=O)CC(NC(=O)OC(C)(C)C)C(=O)CF [BOC-D-FMK, Boc-Asp(Ome)-fluoromethyl ketone]
rescue of the Htt-Q103-induced cytotoxicity ([1]; 50 μM, added at the time of tebufenozide induction): ≥ 100% | rescue of Htt-Q103 toxicity ([1]; 72 hour induction with tebufenozide): rescues Htt-Q103 toxicity

C=C1[C@@H](O)[C@@H]2O[C@]3(CC[C@H](/C=C/[C@@H](C)[C@@H]4CC(C)=C[C@@]5(O[C@H](C[C@@](C)(O)C(=O)O)CC[C@H]5O)O4)O3)CC[C@H]2O[C@@H]1[C@@H](O)C[C@H](C)[C@H]1O[C@@]2(CCCCO2)CC[C@H]1C [okadaic acid]
sensitization of cells to camptothecin ([2]; BJ (or BJ-TERT) cells, simultaneous treatment): renders BJ cells sensitive to camptothecin | sensitization of cells to erastin ([2]; BJ or BJ-TERT cells): does not render BJ or BJ-TERT cells sensitive to erastin | effect on calcein AM viability staining, alone ([2]; 3.4 nM): no effect on its own | effect on calcein AM viability staining, alone ([2]; highest concentrations tested): kills BJ cells | expression of TOPI (western blot) [3]: stimulates expression of TOPI

Cc1c(C)c2c(c(C)c1O)CC[C@@](C)(CCC[C@H](C)CCC[C@H](C)CCCC(C)C)O2 [α-tocopherol]
suppression of erastin activity [4]: suppress erastin activity

erastin B
activity and selectivity in tumor cells versus normal cells [5]: active and selective, but less potent than erastin
